Patent US20060069132A1, “Azolecarboxamide herbicides” (priority 2004, published 2006)

Legend:
[1] = test system: bermudagrass; assay: Test E pre-/postemergence herbicide test; type: in vivo, Cynodon dactylon
Summary of the method: (§1)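 Herbicidal effect scored visually, 0–100 scale, versus controls. Treatments: preemergence on planted seed; postemergence on 2–18 cm seedlings. Greenhouse, 12 to 14 days.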

[2] = test system: Surinam grass; assay: Test E pre-/postemergence herbicide test; type: in vivo, Urochloa decumbens
Summary of the method: as §1

[3] = test system: common groundsel; assay: Test E pre-/postemergence herbicide test; type: in vivo, Senecio vulgaris
Summary of the method: as §1

[4] = test system: guineagrass; assay: Test E pre-/postemergence herbicide test; type: in vivo, Panicum maximum
Summary of the method: as §1

[5] = test system: common purslane; assay: Test E pre-/postemergence herbicide test; type: in vivo, Portulaca oleracea; settings: Preemergence
Summary of the method: as §1

[6] = test system: goosegrass; assay: Test E pre-/postemergence herbicide test; type: in vivo, Eleusine indica
Summary of the method: as §1

[7] = test system: common mallow; assay: Test E pre-/postemergence herbicide test; type: in vivo, Malva sylvestris
Summary of the method: as §1

[8] = test system: downy bromegrass; assay: Test F pre-/postemergence herbicide test; type: in vivo, Bromus tectorum
Description: Seeds of plant species selected from annual blugrass (Poa annua L.), blackgrass (Alopecurus myosuroides Huds.), catchweed bedstraw (Gallium aparine L.), common chickweed (Stellaria media (L.) Vill./Cyr.), downy bromegrass (Bromus tectorum L.), green foxtail (Setaria viridis (L.) Beauv.), Italian ryegrass (Lolium multiflorum Lam.), kochia (Kochia scoparia (L.). Schrad.), lambsquarters (Chenopodium album L.), littleseed canarygrass (Phalaris minor Retz.), pigweed (Amaranthus retroflexus L.), Russian thistle (Salsola kali L. ssp. Ruthenica (Iljin) Soo), wild buckwheat (Polygonum convolvulus L.), wild mustard (Sinapis arvensis L.), wild oat (Avena fatua L.), windgrass (Apera spica-venti (L.) Beauv.), winter barley (Hordeum vulgare L.), and wheat (Triticum aestivum L.) were planted and treated preemergence with test chemicals formulated in a non-phytotoxic solvent mixture which included a surfactant.
At the same time, plants selected from these crop and weed species were treated with postemergence applications of some of the test chemicals formulated in the same manner. Plants ranged in height from 2 to 18 cm (1- to 4-leaf stage) for postemergence treatments. Treated plants and controls were maintained in a greenhouse for 12 to 14 days, after which time all species were compared to controls and visually evaluated. Plant response ratings, summarized in Table F, are based on a scale of 0 to 100 where 0 is no effect and 100 is complete control. A dash (-) response means no test result.

[9] = Postemergence, 500 g ai/ha, scale 0 to 100
[10] = Postemergence, 250 g ai/ha, scale 0 to 100
[11] = Preemergence, 62 g ai/ha, scale 0 to 100
[12] = Preemergence, 125 g ai/ha, scale 0 to 100
[13] = Preemergence, 250 g ai/ha, scale 0 (no effect) to 100 (complete control)
[14] = Preemergence, 500 g ai/ha, scale 0 (no effect) to 100 (complete control)
[15] = postemergence, 125 g ai/ha, scale 0 to 100
[16] = postemergence, 62 g ai/ha, scale 0 to 100

Q: With `CCn1nc(C(C)(C)C)cc1C(=O)Nc1cccc(C(N)=O)n1` [Compound 162, 6-[[[3-(1,1-dimethylethyl)-1-ethyl-1H-pyrazol-5-yl]carbonyl]amino]-2-pyridinecarboxamide] as the compound, how does the “Plant response rating, Bermudagrass” value [1, 9] read?
A: Its value is 80.

Q: And the “Plant response rating, Bermudagrass” value [1, 10]?
A: The value was 70.

Q: What about the “Plant response rating, Bermudagrass” value [1, 11] of the same compound?
A: Its value is 70.

Q: And the “Plant response rating, Bermudagrass” value [1, 12]?
A: Its value is 80.

Q: What about the “Plant response rating, Bermudagrass” value [1, 13] of the same compound?
A: The value was 90.

Q: And the “Plant response rating, Bermudagrass” value [1, 14]?
A: The value was 100.

Q: What about the “Plant response rating, Bermudagrass” value [1, 15] of the same compound?
A: Its value is 30.

Q: And the “Plant response rating, Bermudagrass” value [1, 16]?
A: Its value is 0.

Q: What about the “Plant response rating, Surinam Grass” value [2, 9] of the same compound?
A: Its value is 100.

Q: What about the “Plant response rating, Surinam Grass” value [2, 10] of the same compound?
A: Its value is 98.

Q: And the “Plant response rating, Surinam Grass” value [2, 11]?
A: The value was 60.

Q: What about the “Plant response rating, Surinam Grass” value [2, 12] of the same compound?
A: The value was 75.

Q: And the “Plant response rating, Surinam Grass” value [2, 14]?
A: Its value is 100.

Q: What about the “Plant response rating, Surinam Grass” value [2, 15] of the same compound?
A: Its value is 90.

Q: What about the “Plant response rating, Surinam Grass” value [2, 16] of the same compound?
A: Its value is 50.

Q: And the “Plant response rating, Groundsel” value [3, 9]?
A: Its value is 100.

Q: And the “Plant response rating, Groundsel” value [3, 10]?
A: The value was 80.

Q: What about the “Plant response rating, Groundsel” value [3, 11] of the same compound?
A: The value was 10.

Q: And the “Plant response rating, Groundsel” value [3, 12]?
A: The value was 40.

Q: What about the “Plant response rating, Groundsel” value [3, 13] of the same compound?
A: Its value is 80.

Q: And the “Plant response rating, Groundsel” value [3, 14]?
A: The value was 100.

Q: And the “Plant response rating, Groundsel” value [3, 15]?
A: The value was 30.

Q: And the “Plant response rating, Groundsel” value [3, 16]?
A: The value was 20.

Q: And the “Plant response rating, Guineagrass” value [4, 9]?
A: Its value is 98.

Q: What about the “Plant response rating, Guineagrass” value [4, 10] of the same compound?
A: The value was 90.

Q: What about the “Plant response rating, Guineagrass” value [4, 11] of the same compound?
A: Its value is 50.

Q: And the “Plant response rating, Guineagrass” value [4, 12]?
A: Its value is 100.

Q: And the “Plant response rating, Guineagrass” value [4, 13]?
A: Its value is 100.

Q: And the “Plant response rating, Guineagrass” value [4, 14]?
A: Its value is 100.

Q: What about the “Plant response rating, Guineagrass” value [4, 15] of the same compound?
A: Its value is 75.

Q: What about the “Plant response rating, Guineagrass” value [4, 16] of the same compound?
A: The value was 35.

Q: And the “Plant response rating, Purslane” value ([5]; 62 g ai/ha, scale 0 to 100)?
A: Its value is 100.

Q: And the “Plant response rating, Purslane” value ([5]; 125 g ai/ha, scale 0 to 100)?
A: The value was 100.

Q: And the “Plant response rating, Purslane” value ([5]; 250 g ai/ha, scale 0 (no effect) to 100 (complete control))?
A: The value was 100.

Q: What about the “Plant response rating, Purslane” value ([5]; 500 g ai/ha, scale 0 (no effect) to 100 (complete control)) of the same compound?
A: The value was 100.

Q: What about the “Plant response rating, Goosegrass” value [6, 9] of the same compound?
A: Its value is 98.

Q: What about the “Plant response rating, Goosegrass” value [6, 10] of the same compound?
A: Its value is 95.

Q: And the “Plant response rating, Goosegrass” value [6, 11]?
A: The value was 60.

Q: What about the “Plant response rating, Goosegrass” value [6, 12] of the same compound?
A: Its value is 90.

Q: What about the “Plant response rating, Goosegrass” value [6, 13] of the same compound?
A: Its value is 95.

Q: What about the “Plant response rating, Goosegrass” value [6, 14] of the same compound?
A: Its value is 95.

Q: And the “Plant response rating, Goosegrass” value [6, 15]?
A: The value was 80.

Q: What about the “Plant response rating, Goosegrass” value [6, 16] of the same compound?
A: Its value is 50.

Q: What about the “Plant response rating, Mallow” value [7, 9] of the same compound?
A: The value was 100.

Q: And the “Plant response rating, Mallow” value [7, 10]?
A: The value was 80.

Q: And the “Plant response rating, Mallow” value [7, 11]?
A: Its value is 50.

Q: And the “Plant response rating, Mallow” value [7, 12]?
A: The value was 70.

Q: What about the “Plant response rating, Mallow” value [7, 13] of the same compound?
A: Its value is 100.

Q: And the “Plant response rating, Mallow” value [7, 14]?
A: Its value is 100.

Q: And the “Plant response rating, Mallow” value [7, 15]?
A: The value was 60.

Q: What about the “Plant response rating, Mallow” value [7, 16] of the same compound?
A: The value was 40.

Q: And the “Plant response rating (0-100), Bromegrass, Downy” value (“Plant response rating … Downy” below) ([8]; Postemergence, 62 g ai/ha)?
A: The value was 50.

Q: What about the “Plant response rating … Downy” value ([8]; Postemergence, 125 g ai/ha) of the same compound?
A: Its value is 50.

Q: And the “Plant response rating … Downy” value ([8]; Postemergence, 250 g ai/ha)?
A: The value was 80.

Q: What about the “Plant response rating … Downy” value ([8]; Postemergence, 500 g ai/ha) of the same compound?
A: Its value is 90.

Q: And the “Plant response rating … Downy” value ([8]; Preemergence, 62 g ai/ha)?
A: Its value is 70.

Q: What about the “Plant response rating … Downy” value ([8]; Preemergence, 125 g ai/ha) of the same compound?
A: Its value is 100.

Q: And the “Plant response rating … Downy” value ([8]; Preemergence, 250 g ai/ha)?
A: Its value is 100.

Q: What about the “Plant response rating … Downy” value ([8]; Preemergence, 500 g ai/ha) of the same compound?
A: Its value is 100.

Q: For `CCc1nn(C(C)(C)C)cc1C(=O)Nc1cc(C(=O)N(CC)CC)ccc1F` [Compound 223], which “Plant response rating … Downy” value ([8]; Postemergence, 125 g ai/ha) is on record?
A: The value was 20.

Q: And the “Plant response rating … Downy” value ([8]; Preemergence, 125 g ai/ha)?
A: The value was 50.
